The values that follow come from PMC5765751 (Journal of the American Chemical Society, 2017).

The structures appear in SMILES notation.

The nature of the data set: physchem. The data set is classed as physicochemical. As to conditions: pH 6.

Consider `O=C1NC(Cc2ccc(O)cc2)C(=O)NC1Cc1ccc(O)cc1` (stereo not shown) [cYY, 3,6-bis(4-hydroxybenzyl)piperazine-2,5-dione], for which the pKa – broadly, the pH at which an ionisable group is half protonated – was 9.9 ± 0.02.
